Data as given in publication PMC10010340, “The Wnt Pathway Inhibitor RXC004 Blocks Tumor Growth and Reverses Immune Evasion in Wnt Ligand–dependent Cancer Models” (Cancer Research Communications, 2022).
Read-outs that look alike come from different tables or passages of the source.

What was measured:
SNU-1411 cells = assay: In vitro glucose uptake; assay type: cell-based, human; settings: Homo sapiens; SNU-1411, RXC004 100 nmol/L, 48 hours
Experimental: (§1) SNU-1411, HPAF-II, and HCT116 cells were treated in vitro for 48 hours with RXC004 (100 nmol/L), Latrunculin A (Abcam #ab144290; 500 nmol/L), or DMSO prior to analysis using the Glucose Uptake Glo Assay Kit (Promega #J1341). The ATPlite assay was used to control for cell viability, confirming RXC004 has no effect on proliferation at this 48 hours timepoint.

HCT116 cells = assay: In vitro glucose uptake; assay type: cell-based, human; settings: HCT116, RXC004 100 nmol/L, 48 hours
Experimental: as §1

HPAF-II cells = assay: In vitro glucose uptake; assay type: cell-based, human; settings: Homo sapiens, RXC004 100 nmol/L, 48 hours
Experimental: as §1

CT26 tumors = assay: CT26/BALB/c syngeneic model; assay type: in vivo, mouse (BALB/c); settings: RXC004 1.5 or 5 mg/kg once daily; anti-PD-1 10 mg/kg every 3 days
Experimental: CT26/BALB/c syngeneic model was performed at ProQuinase GmbH. Mouse CT26 cells (5 × 10^5) were subcutaneously implanted in the flanks of the immunocompetent female BALB/c mice. Treatment was initiated once tumors reached approximately 50 mm^3. RXC004 was dosed orally at 1.5 or 5 mg/kg (once daily). Anti-PD-1 (BioXCell) or isotype control was dosed every 3 days at 10 mg/kg i.p. Tumor volume was measured over time. For immunophenotyping the tumor infiltrate, tumors from a separate study were resected at day 14, weighed, digested, and stained for flow cytometry analysis by Beckton Dickenson LSR Fortessa. T-cell analysis panel included viability dye, CD45, CD3, CD4, CD8, CD25, and FOXP3.

In vivo pharmacokinetics = assay: In vivo pharmacokinetics; design: species or system mouse (male CD1); settings: mouse
Experimental: In vivo pharmacokinetics: RXC004 was dosed to male Sprague Dawley rats, male CD1 mice or dog (beagle) by intravenous and oral routes. Bioanalysis of blood and plasma samples was performed by LC/MS-MS using a Waters TQS or TQMS mass spectrometer. Pharmacokinetic information was derived using WinNonlin software (Certara).

B16F10 tumors = assay: B16F10/SCID-Beige model; assay type: in vivo, mouse (SCID-Beige); settings: 5 mg/kg once daily for 21 days, immunocompromised mice
Experimental: B16F10/SCID-Beige model was performed at Axis Bioservices. Mouse B16F10 cells (2 × 10^5) were subcutaneously implanted in flanks of the immunocompromised male SCID-Beige mice. Treatment with RXC004 (5 mg/kg once daily) was initiated at day 3, once the tumors were palpable, and tumor volume assessed over time.

[1] = pKa by fast UV (spectrometric) technique; assay type: physicochemical; settings: 25°C; for pKa: methanol-water mixture
Experimental: pKas were determined using the fast UV (spectrometric) technique. Samples were titrated under methanol-water mixture between pH2.0 and pH12.0 at 30–15 μmol/L at 25°C. The ionic strength was 0.192 mol/L (KCl). Aqueous pKas were determined per Yasuda-Shedlovsky ([17]).

SNU-1411 xenograft = assay: SNU-1411 tumor reimplantation study; assay type: in vivo, mouse (NOD-SCID); settings: prior treatment 5 mg/kg once daily, 9 days; versus vehicle pretreated
Experimental: The reimplantation study was performed at Sygnature Discovery. SNU-1411–implanted NOD-SCID mice were dosed orally with RXC004 (5 mg/kg, once daily) once tumors reached an average size of 350 mm^3. After 9 days treatment, tumors were resected and equivalent viable tumor fragments from each tumor were reimplanted into separate naïve NOD-SCID mice, tumor volume was assessed at various subsequent timepoints.

recombinant CYP enzymes = assay: Recombinant CYP enzyme assays (metabolism); assay type: in vitro ADME
[2] = test system: HPAF-II cells cocultured with human PBMCs; assay: HPAF-II / human PBMC coculture; assay type: cell-based; settings: HPAF-II pretreated 100 nmol/L, 3 days
Experimental: HPAF-II cells were incubated for 3 days with RXC004 (100 nmol/L) or DMSO control, washed and detached using Accutase and equal number of viable cells (as assessed by Trypan Blue exclusion) per treatment were reseeded in 96-well plates. Frozen human peripheral blood mononuclear cells (PBMC), originally collected by density gradient separation using Histopaque from four healthy donors, were thawed and cultured in complete media. After approximately 40 hours, nonadherent PBMCs were added to coculture with the HPAF-II cells, at a PBMC:HPAF-II ratio of 5:1. T-cell proliferation and cytokine production was stimulated using Immunocult CD3/CD28-tetramer (Stemcell Technologies #10971). For monoculture nonadherent PBMC experiments, T cells were stimulated using Immunocult in the presence or absence of recombinant Wnt3a (Biotechne #5036-WN-010) and/or recombinant Wnt5a (Biotechne #645-WN-010), both at 100 ng/mL. After 5 days, supernatants from monoculture or coculture experiments were removed for analysis, whereas suspension cells were fixed, stained with anti-Ki67 (BD #563462), anti-CD4 (BioLegend #317420), and anti-CD8 (BD #564116) antibodies, before flow cytometry was performed on a Novocyte flow cytometer. Cytokines and chemokines in the supernatant were quantified using a 30-plex panel on Magpix (Thermo Fisher Scientific #LHC6003M) or ELISA for IFNγ (R&D Systems # DY285B-05).

[3] = test system: cells with upstream aberrations in Wnt pathway components; assay: Cell-cycle analysis by flow cytometry; assay type: cell-based, human; settings: 100 nmol/L, 3 days
Experimental: For concentration–response effects on gene expression, Single-Shot Cell Lysis kit (Bio-Rad #172-5080) was used for RNA extraction, data were normalized to DMSO-treated controls, and IC50 values determined. For cell-cycle analysis, the cancer cell line panel was treated with RXC004 (100 nmol/L) or DMSO (0.1%) for 3 days. Cell-cycle profiles were determined by staining with propidium iodide (Thermo Fisher Scientific #P3566) and phospho-Ser10-Histone-H3 (AlexaFluor-647, BioLegend #650806), and quantified using an Agilent Novocyte-3000 flow cytometer. For in vitro growth curve analysis, HPAF-II and SNU-1411 cells were seeded in 96-well plates at 2,000 cells/well and imaged on the IncuCyte (Sartorius) at 10× magnification with 4 fields of view per well. Total cell object count over time was calculated using the Adherent Cell-by-Cell analysis module.

[4] = male, CD1, in vivo, po, 5 mg/kg p.o.

Cc1c(-c2ccnc(C(F)(F)F)c2)ncn1CC(=O)Nc1ccc(-c2cnccn2)cn1 [RXC004, 2-[5-methyl-4-[2-(trifluoromethyl)-4-pyridyl]imidazol-1-yl]-N-(5-pyrazin-2-yl-2-pyridyl)acetamide]
inhibition at 0.1 µM (SNU-1411 cells): > 50%
glucose uptake (HCT116 cells): had no effect
inhibition at 0.1 µM (HPAF-II cells): > 50%
tumor growth (CT26 tumors): limited effect on tumor growth
clearance (In vivo pharmacokinetics; male, CD1, in vivo, intravenous, 2 mg/kg, dose i.v./p.o. 2/5 mg/kg): 2.9 mL/min/kg
Vd (In vivo pharmacokinetics; male, CD1, in vivo, intravenous, 2 mg/kg, dose i.v./p.o. 2/5 mg/kg, read-out: Vss): 0.4 L/kg
AUC(0-inf) (In vivo pharmacokinetics; [4]): 33.9 µM·h
Cmax (In vivo pharmacokinetics; [4]): 7.6 µM
concentration at 24 h (In vivo pharmacokinetics; male, CD1, in vivo, po, 5 mg/kg p.o., read-out: C24h (p.o.)): 0.002 µM
half-life (In vivo pharmacokinetics; male, CD1, in vivo, dose i.v./p.o. 2/5 mg/kg, read-out: T½ (converted)): 1.8 h
F (p.o.) (In vivo pharmacokinetics; dose i.v./p.o. 2/5 mg/kg): 48%
tumor growth (B16F10 tumors): did not reduce tumor growth
pKa (most basic) [1]: 3.84
pKa ([1]; read-out: pKa (most acidic)): 11.2
pKa ([1]; read-out: pKa (most basic)): 3.8
tumor growth after reimplantation into naïve untreated mice (SNU-1411 xenograft): prolonged impact on tumor growth
metabolizing CYP enzyme (recombinant CYP enzymes): exclusively metabolized by CYP3A4
HPAF-II inhibition of T-cell proliferation and IFNγ/GMCSF release [2]: fully reversed
release of CXCL9 [2]: potentiated the HPAF-II–dependent release of the chemokine CXCL9
secretion of VEGF [2]: reducing the HPAF-II–dependent secretion of the angiogenesis promoting growth factor VEGF
expression of mitosis marker phospho-histone-H3 [3]: strongly inhibited expression of the mitosis marker phospho-histone-H3
proportion of cells in S-phase [3]: reduced the proportion of cells in S-phase
